According to patent publication US12552733B2, “Terpenophenolic compounds and their use” (Phytotherapeutix Ltd., priority 2020, dated 2026):

What was measured:
[1] = PK study: plasma levels after i.p. administration, LC/MS/MS; type: in vivo, Mouse; details: 100 mg/kg i.p.; sampled at 30, 60, 120 min
Protocol: For testing of each compound, six CD-1 mice were divided into 2 groups of 3. Animals were administered test agents via i.p. route and blood collected at 30, 60 and 120 min, administration as outlined in Table 1. Blood samples were collected in EDTA-coated microfuge tubes, inverted and placed on an ice pack prior to centrifugation and storage at −70° C. Samples were extracted using an acetonitrile/protein precipitation method and levels of test agent analysed by LC/MS/MS.
Bioanalytical detection method was developed using an LC/MS/MS (ABI 5000 or 5500). Standard curves of the test agent were prepared in an appropriate biological matrix (plasma). Levels of test article was measured in plasma as per the developed method.
Levels were determined by extrapolating the concentration from a standard curve using linear regression analysis. Method development and bioanalysis was performed by a partner company, Keystone Bioanalytical (North Wales, PA, US).

[2] = system: PTZ mouse model of seizures; experiment: PTZ-induced seizures study; type: in vivo; details: 30 min pretreatment; for protection from clonic seizures (PTZ) vs vehicle-treated animals / protection from tonic hindlimb seizures (PTZ) vs vehicle-treated animals: test compounds 200 mg/kg IP, CBD 100 mg/kg IP, 60 min, PTZ 100 mg/kg i.p.
Protocol: Mice were acclimated to the procedure room for at least 30 minutes. Pentylenetetrazole (PTZ; SigmaAldrich) was formulated in water to a concentration of 20 mg/ml. Injections of PTZ were made at a volume of 5 mI/kg to produce a final dose of 100 mg/kg. PTZ injections were i.p. Diazepam was formulated at a concentration of 2 mg/mL and administered at volume of 10 mL/kg to produce a final dose of 20 mg/kg. Time to initial myoclonic and tonic hindlimb extensor response was measured. A 10-min maximum latency to seizure was imposed.
(§1) The data was expressed as mean+SEM. Statistical analysis using one-way ANOVA with post-hoc Fisher's LSD test was used to determine statistical significance compared to the vehicle-treated animals.
(§2) Animals received treatments according to Table 3.
as §2

[3] = system: MES mouse model of seizures; experiment: Maximal Electroshock (MES) seizure study; type: in vivo; details: test compounds 200 mg/kg IP, 30 min pretreatment, CBD 100 mg/kg IP, 60 min, one-way ANOVA, Fisher's LSD
Protocol: Animals were administered vehicle, phenytoin, CBD or test compounds and gross behavioural observations were done for 30 minutes. Proparacaine hydrochloride ophthalmic solution (Butler AHS, Dublin, OH) was applied approximately 10 minutes prior to testing to numb the eyes. Thirty to sixty minutes after administration of vehicle,phenytoin, CBD or test compounds, 0.9% saline solution (sodium chloride in water) was applied to both eyes and electro-convulsions were produced by an alternating current delivered via corneal electrodes by a Rodent Shocker generator at a frequency of 60 Hz (Harvard Apparatus, Holliston, Mass.). Parameters for the ICR:CD1 mice were 0.2 s stimulus duration at an intensity of 25 mA. The criterion for seizure occurrence were presence of a tonic hind limb extension, defined as extension exceeding a 90-degree angle with the plane of the body. […] Any seizure activity (i.e. clonic seizures defined as rapid spasms or jerky movements of the limbs) prior to tonic hind limb seizure were recorded as presence of seizure (noted as 1-yes, 0-no). After seizure exhibition or 20-second timeout, mice were euthanized via cervical dislocation.
as §1
The results of the MES study are illustrated in FIG. 4: MES: Latency in seconds for seizures to occur in mice. Animals received treatments according to Table 2. […] Data are expressed as the average ±SEM. Data were analysed by One-way ANOVA, followed by a post-hoc Fisher's LSD test. ***P<0.001, *P<0.05, n=1 PTZ Study

C=C(C)[C@@H]1CCC(C)=C[C@H]1c1c(O)cc(CCc2ccccc2)cc1O [(−)-trans-CBD-PET, (1′R,2′R)-5′-methyl-4-phenethyl-2′-(prop-1-ene-2-yl)-1′,2′,3′,4′-tetrahydro-[1,1′-biphenyl]-2,6-diol]
time at which maximal concentration in plasma was achieved after the injection [1]: 30 min | protection from clonic seizures (PTZ) vs vehicle-treated animals ([2]; listed as (−)-trans CBD-PET): significant protection from clonic seizures | protection from tonic hindlimb seizures (PTZ) vs vehicle-treated animals ([2]; listed as (−)-trans CBD-PET): significant effect, protecting from tonic hindlimb seizures | protection from clonic seizures (PTZ) vs vehicle-treated animals ([2]; listed as CBD-PET): showing activity against both clonic and tonic seizures | protection from tonic hindlimb seizures (PTZ) vs vehicle-treated animals ([2]; listed as CBD-PET): showing activity against both clonic and tonic seizures

C=C(C)[C@@H]1CCC(C)=C[C@H]1c1c(O)cc(CCc2ccc(O)cc2)cc1O [(−)-trans-CBD-PET-OH, (1′R,2′R)-4-(4-hydroxyphenethyl)-5′-methyl-2′-(prop-1-ene-2-yl)-1′,2′,3′,4′-tetrahydro-[1,1′-biphenyl]-2,6-diol]
effect in the MES study (latency to tonic hindlimb seizure) vs vehicle ([3]; listed as (−)-trans CBD-PET-OH): significantly different from vehicle | effect in the MES study (latency to tonic hindlimb seizure) vs vehicle ([3]; listed as CBD-PET-OH): effective | time at which maximal concentration in plasma was achieved after the injection [1]: 30 min | protection from tonic hindlimb seizures (PTZ) vs vehicle-treated animals ([2]; listed as (−)-trans CBD-PET-OH): significant effect, protecting from tonic hindlimb seizures | protection from tonic hindlimb seizures (PTZ) vs vehicle-treated animals ([2]; listed as CBD-PET-OH): particularly effective against tonic seizures

C=C(C)[C@@H]1CCC(C)=C[C@H]1c1c(O)cc(CCCCC)cc1O [Cannabidiol, reference compound]
effect in the MES study (latency to tonic hindlimb seizure) vs vehicle [3]: did not produce a significant effect | protection from clonic seizures (PTZ) vs vehicle-treated animals [2]: did not produce a significant effect | protection from tonic hindlimb seizures (PTZ) vs vehicle-treated animals [2]: did not produce a significant effect

CN1C(=O)CN=C(c2ccccc2)c2cc(Cl)ccc21 [diazepam, reference compound]
protection from the seizures (PTZ; clonic and tonic hindlimb, FIGS. 5 and 6) ([2]; PO, p<0.05): 100%
